The results in this text go back to ChEMBL document CHEMBL1129219, “Use of CoMFA in validating the conformation used in designing 4-(1H-benzimidazole-2-carbonyl)piperidines with H1/NK1 receptor antagonist activity” (Bioorg Med Chem Lett, 1997).

Molecules are shown by their SMILES.

Usually IC50 stands for the point on the concentration scale where inhibition reaches its midpoint. Low values mean inhibition by little substance, high ones a need for much substance.

The target in this assay is Histamine H1 receptor (Homo sapiens, UniProt P35367). The experiment in a line: Antagonistic activity against histamine H1 receptor. The assay is classed as functional.
Sequence of Histamine H1 receptor (P35367 whole entry): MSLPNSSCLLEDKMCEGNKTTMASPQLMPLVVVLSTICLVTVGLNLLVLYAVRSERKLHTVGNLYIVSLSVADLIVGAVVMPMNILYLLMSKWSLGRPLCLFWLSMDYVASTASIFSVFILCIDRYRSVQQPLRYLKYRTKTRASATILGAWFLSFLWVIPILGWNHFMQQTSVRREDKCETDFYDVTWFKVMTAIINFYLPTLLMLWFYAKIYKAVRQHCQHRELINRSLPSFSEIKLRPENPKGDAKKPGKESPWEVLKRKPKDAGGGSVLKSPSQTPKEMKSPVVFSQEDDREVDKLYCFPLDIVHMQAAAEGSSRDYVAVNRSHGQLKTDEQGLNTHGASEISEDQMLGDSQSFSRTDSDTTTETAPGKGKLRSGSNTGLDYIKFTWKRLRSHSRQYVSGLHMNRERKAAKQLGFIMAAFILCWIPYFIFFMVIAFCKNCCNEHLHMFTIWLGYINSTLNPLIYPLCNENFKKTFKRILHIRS
As to `COc1cc(C(=O)N2CCC(CCN3CCC(C(=O)c4nc5ccccc5n4Cc4ccc(F)cc4)CC3)(c3ccc(F)cc3F)C2)cc(OC)c1OC` (stereo not drawn), the IC50 is 437 nM. The molecule `CCOCCn1c(C(=O)C2CCN(CCC3(c4ccc(F)cc4)CCN(Cc4cc(OC)c(OC)c(OC)c4)C3=O)CC2)nc2ccccc21` (stereo not drawn) had an IC50 of 251 nM. Against the preceding molecule, the IC50 is about 1.7-fold lower.

In turn, `COc1cc(C(=O)N2CCC(CCN3CCC(C(=O)c4nc5ccccc5n4CCCC(=O)O)CC3)(c3ccc(Cl)c(Cl)c3)C2)cc(OC)c1OC` (stereo not drawn) showed an IC50 of 10000 nM. This IC50 lies about 40-fold higher than the previous one. With `COc1ccc(C(=O)N2CCC(CCN3CCC(C(=O)c4nc5ccccc5n4Cc4ccc(F)cc4)CC3)(c3ccc4c(c3)OCO4)C2)c(OC)c1OC` (stereo not drawn) the figure was 257 nM; with `CCOCCn1c(C(=O)C2CCN(CCC3(c4ccc(OC)c(OC)c4)CCN(C(=O)c4cc(OC)c(OC)c(OC)c4)C3)CC2)nc2ccccc21` (stereo not drawn), 631 nM; with `COc1cc(C(=O)N2CCC(CCN3CCC(C(=O)c4nc5ccccc5n4CCN4CCOCC4)CC3)(c3ccc(Cl)c(Cl)c3)C2)cc(OC)c1OC` (stereo not drawn), 550 nM.

Take `COc1cc(C(=O)N2CCC(CCN3CCC(C(=O)c4nc5ccccc5n4Cc4ccc(F)cc4)CC3)(c3ccc4c(c3)OCO4)C2)cc(OC)c1OC` (stereo not drawn): half-maximal inhibition (IC50) required 204 nM. Compared with the last molecule, the IC50 is about 2.7-fold lower. The result for `COc1cc(C(=O)N2CCC(CCN3CCC(C(=O)c4nc5ccccc5n4Cc4ccc(F)cc4)CC3)(c3ccc(C(F)(F)F)cc3)C2)cc(OC)c1OC` (stereo not drawn) reads 468 nM; that for `COC(=O)c1ccc(Cn2c(C(=O)C3CCN(CCC4(c5ccccc5)CCN(C(=O)c5cc(OC)c(OC)c(OC)c5)C4)CC3)nc3ccccc32)cc1` (stereo not drawn), 1170 nM; that for `COc1cc(C(=O)N2CCC(CCN3CCC(C(=O)c4nc5ccccc5n4Cc4cccnc4)CC3)(c3ccccc3)C2)cc(OC)c1OC` (stereo not drawn), 417 nM.

Molecule `COc1ccc(C2(CCN3CCC(C(=O)c4nc5ccccc5[nH]4)CC3)CCN(C(=O)c3cc(OC)c(OC)c(OC)c3)C2)cc1OC` (stereo not drawn) showed an IC50 of 1950 nM. The molecule `COc1cc(C(=O)N2CCCC(CCN3CCC(C(=O)c4nc5ccccc5n4Cc4ccc(F)cc4)CC3)(c3ccc(Cl)c(Cl)c3)C2)cc(OC)c1OC` (stereo not drawn) showed an IC50 of 214 nM.

In the case of `CCOCCn1c(C(=O)C2CCN(CCC3(c4ccc(Cl)c(Cl)c4)CCN(C(=O)c4cc(OC)c(OC)c(OC)c4)C3)CC2)nc2ccccc21` (stereo not drawn), the IC50 is 339 nM. `COc1cc(C(=O)N2CCC(CCN3CCC(C(=O)c4nc5ccccc5n4Cc4ccc(C(=O)O)cc4)CC3)(c3ccccc3)C2)cc(OC)c1OC` (stereo not drawn) had an IC50 of 33900 nM. The result for `COc1ccc(C2(CCN3CCC(C(=O)c4nc5ccccc5n4Cc4ccc(F)cc4)CC3)CCN(C(=O)c3ccccc3)C2)cc1OC` (stereo not drawn) reads 240 nM; that for `COc1cc(C(=O)N2CCC(CCN3CCC(C(=O)c4nc5ccccc5[nH]4)CC3)(c3ccc(Cl)c(Cl)c3)C2)cc(OC)c1OC` (stereo not drawn), 407 nM. The result for `COc1ccc(CCN2CCC(C(=O)c3nc4ccccc4n3Cc3ccc(F)cc3)CC2)cc1` reads 58.9 nM; that for `COc1ccc(CCN2CCC(=Nc3nc4ccccc4n3Cc3ccc(F)cc3)CC2)cc1`, 46.8 nM. With `CCOCCn1c(C(=O)C2CCN(CCC3(c4ccccc4)CCN(C(=O)c4cc(OC)c(OC)c(OC)c4)C3)CC2)nc2ccccc21` (stereo not drawn), the IC50 is 380 nM.

`COc1cc(C(=O)N2CCC(CCN3CCC(C(=O)c4nc5ccccc5n4Cc4ccc(F)cc4)CC3)(c3ccccc3)C2)cc(OC)c1OC` (stereo not drawn) gave an IC50 of 234 nM. Against the preceding molecule, the IC50 is about 1.6-fold lower.

For `COc1cc(C(=O)N2CCC(CCN3CCC(C(=O)c4nc5ccccc5n4Cc4ccccn4)CC3)(c3ccccc3)C2)cc(OC)c1OC` (stereo not drawn), the midpoint of inhibition, the IC50, lay at 363 nM. With `COc1cc(C(=O)N2CCC(CCN3CCC(C(=O)c4nc5ccccc5n4CCCCOc4ccccc4C(=O)O)CC3)(c3ccccc3)C2)cc(OC)c1OC` (stereo not drawn) the figure was 9120 nM. As for `COc1cc(C(=O)N2CCC(CCN3CCC(C(=O)c4nc5ccccc5[nH]4)CC3)(c3ccccc3)C2)cc(OC)c1OC` (stereo not drawn), the IC50 was 501 nM. Molecule `COc1cc(C(=O)N2CCC(CCN3CCC(C(=O)c4nc5ccccc5n4Cc4ccco4)CC3)(c3ccccc3)C2)cc(OC)c1OC` (stereo not drawn) gave an IC50 of 295 nM. The result for `COc1ccc(C2(CCN3CCC(C(=O)c4nc5ccccc5n4Cc4ccccn4)CC3)CCN(C(=O)c3cc(OC)c(OC)c(OC)c3)C2)cc1` (stereo not drawn) reads 501 nM; that for `COc1cc(C(=O)N2CCC(CCN3CCC(C(=O)c4nc5ccccc5n4Cc4ccncc4)CC3)(c3ccccc3)C2)cc(OC)c1OC` (stereo not drawn), 282 nM; that for `COc1cc(C(=O)N2CCC(CCN3CCC(C(=O)c4nc5ccccc5n4Cc4ccc(F)cc4)CC3)(c3ccc(Cl)c(Cl)c3)C2)cc(OC)c1OC` (stereo not drawn), 282 nM. The result for `CC(C)Oc1cccc(CC(=O)N2CCC(CCN3CCC(C(=O)c4nc5ccccc5n4Cc4ccc(F)cc4)CC3)(c3ccc4c(c3)OCO4)C2)c1` (stereo not drawn) reads 251 nM; that for `CCOC(=O)CCCn1c(C(=O)C2CCN(CCC3(c4ccc(Cl)c(Cl)c4)CCN(C(=O)c4cc(OC)c(OC)c(OC)c4)C3)CC2)nc2ccccc21` (stereo not drawn), 955 nM; that for `COc1ccc(C2(CCN3CCC(C(=O)c4nc5ccccc5n4Cc4ccc(F)cc4)CC3)CCN(C(=O)c3cc(OC)c(OC)c(OC)c3)C2)cc1OC` (stereo not drawn), 331 nM. With `COC(=O)c1ccc(Cn2c(C(=O)C3CCN(CCC4(c5ccc(OC)c(OC)c5)CCN(C(=O)c5cc(OC)c(OC)c(OC)c5)C4)CC3)nc3ccccc32)cc1` (stereo not drawn) the figure was 955 nM. For `COC(=O)c1ccccc1OCCCn1c(C(=O)C2CCN(CCC3(c4ccccc4)CCN(C(=O)c4cc(OC)c(OC)c(OC)c4)C3)CC2)nc2ccccc21` (stereo not drawn), the IC50 was 1000 nM. Take `COc1ccc(C2(CCN3CCC(C(=O)c4nc5ccccc5n4Cc4ccc(C(=O)O)cc4)CC3)CCN(C(=O)c3cc(OC)c(OC)c(OC)c3)C2)cc1OC` (stereo not drawn): the IC50 is 27500 nM.

Molecule `COc1cc(C(=O)N2CCC(CCN3CCC(C(=O)c4nc5ccccc5n4CCOCc4ccco4)CC3)(c3ccccc3)C2)cc(OC)c1OC` (stereo not drawn) showed an IC50 of 447 nM. The result for `O=C(c1nc2ccccc2n1Cc1ccc(F)cc1)C1CCN(CCC2(c3ccc4c(c3)OCO4)CCN(C(=O)c3ccc(Cl)cc3Cl)C2)CC1` (stereo not drawn) reads 129 nM; that for `COc1cc(C(=O)N2CCC(CCN3CCC(C(=O)c4nc5ccccc5n4Cc4ccccn4)CC3)(c3ccc(F)cc3)C2)cc(OC)c1OC` (stereo not drawn), 562 nM; that for `COc1cc(C(=O)N2CCC(CCN3CCC(C(=O)c4nc5ccccc5n4Cc4ccccn4)CC3)(c3ccc(Cl)c(Cl)c3)C2)cc(OC)c1OC` (stereo not drawn), 437 nM. With `CCOc1cc(C(=O)N2CCC(CCN3CCC(C(=O)c4nc5ccccc5n4Cc4ccc(F)cc4)CC3)(c3ccc(OC)c(OC)c3)C2)cc(OCC)c1OCC` (stereo not drawn), the IC50 is 158 nM.
